Measurements: PMC11340618 (iScience, 2024)
≈ marks a conversion by molar mass, not a printed value. Where “and” joins values, the source holds several entries; their conditions need not be identical. Equal values may be shown once. Read-outs that look alike come from different tables or passages of the source.

Experiments:
[1] = tested on: intracellular M. tuberculosis ΔptpA; format: cell-based, Mycobacterium tuberculosis
[2] = tested on: intracellular M. tuberculosis H37Rv (WT); assay: microbe, parasite or virus in culture; format: cell-based; details: Mycobacterium tuberculosis, 72 h
GSK3β = biological target: T1, GSK3β (Homo sapiens, UniProt P49841); assay: in vitro inhibition of GSK3β, ADP-Glo Kinase assay (SignalChem); format: biochemical; details: normalized to negative control
T1 construct: purchased SignalChem (Richmond, BC, Canada), contract assay service
T1 sequence (P49841 whole entry): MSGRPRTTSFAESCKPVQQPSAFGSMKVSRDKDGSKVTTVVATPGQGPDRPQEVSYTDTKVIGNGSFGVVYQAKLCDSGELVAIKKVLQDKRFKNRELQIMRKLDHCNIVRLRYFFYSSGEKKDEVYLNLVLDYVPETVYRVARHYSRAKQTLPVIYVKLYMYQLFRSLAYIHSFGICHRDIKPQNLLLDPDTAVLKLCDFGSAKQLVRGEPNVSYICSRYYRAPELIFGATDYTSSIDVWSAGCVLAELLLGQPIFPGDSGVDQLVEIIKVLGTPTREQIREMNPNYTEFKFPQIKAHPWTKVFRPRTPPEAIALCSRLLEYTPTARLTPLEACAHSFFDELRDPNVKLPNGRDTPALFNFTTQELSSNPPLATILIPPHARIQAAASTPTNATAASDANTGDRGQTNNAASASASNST
Method: Samples of three GSK3 inhibitors (P-4423632, P-0717632, P-3817632) were sent to SignalChem (Richmond, BC, Canada) where a compound selectivity assay was performed and the IC50 values of the inhibitors were determined.
Figure S3: in vitro inhibition of GSK3β by selected inhibitors, related to Star Methods: Determination of IC50 of GSK3 inhibitors. GSK3β activity was measured using the ADP-GloTM Kinase assay and normalized to the negative control (100% kinase activity). Curve was fit using non-linear regression analysis calculated with GraphPad Prism software.
(also on this page, place not known: % Inhibition GSK3β % Inhibition GSK3β % Inhibition GSK3β IC50)

[3] = tested on: Mycobacterium intracellulare; assay: Disk assay, in vitro activity; format: cell-based
Mycobacterium bovis BCG = format: cell-based
Enterococcus faecalis = assay: Disk assay, in vitro activity; format: cell-based; details: up to 25 μg of P-4423632
Moraxella catarrhalis = assay: Disk assay, in vitro activity; format: cell-based
[4] = tested on: Mycobacterium tuberculosis H37Rv auxotroph, mc2 6206; format: cell-based
Acinetobacter baumannii = assay: Disk assay, in vitro activity; format: cell-based
[5] = tested on: GSK3α Y279 / GSK3β Y216 phosphorylation; assay: Western blot of Y279 - Y216 phosphorylation status of GSK3α and GSK3β in THP-1 cells; format: cell-based, human
[6] = tested on: Mycobacterium tuberculosis H37Rv in broth; assay: In-broth activity analysis (resazurin assay)
[7] = tested on: panel of bacteria, including Mtb; format: cell-based
[8] = tested on: intracellular Mtb in GSK3α KO / GSK3β KO THP-1 cells; format: cell-based, Mycobacterium tuberculosis; details: 10 μM P-4423632, 72 h
Salmonella typhimurium = assay: Disk assay, in vitro activity; format: cell-based
THP-1 cells = assay: Annexin V FITC apoptosis assay, flow cytometry; format: cell-based, human
M. avium avium = assay: Disk assay, in vitro activity; format: cell-based
Mycobacterium smegmatis = format: cell-based; details: up to 100 μg of P-4423632
Pseudomonas aeruginosa = assay: Disk assay, in vitro activity; format: cell-based
[9] = tested on: Campylobacter jejuni in Caco-2 cells; assay: Caco-2 infection with C. jejuni, CFU; format: cell-based; details: two-fold serial dilutions, 24h
Method: Isolated colonies from overnight culture grown on Muller -Hinton (MH) plates in microaerophilic conditions were inoculated into liquid MH media and grown overnight. Bacteria were pelleted by centrifugation and resuspended in DMEM media. The bacteria were then added at an MOI of 100-400 to Caco-2 cells in 24-well plates at 10^5 cells per well. After 2 h of incubation, infected cells were washed with fresh DMEM and incubated an additional 2 h with 100-200 μg/ml gentamycin followed by the addition of test compounds and incubation for 24 h. After incubation, cells were washed with fresh DMEM and lysed by osmotic shock with sterile […] and passed through a 27G needle with a syringe. The lysate was serially diluted and plated in MH agar using the pouring plate method. CFU were then counted after a 24 - 48 h incubation. To assess cell survival, a duplicate of the previous conditions was used to undergo MTT assay or cell count with the CX5 using DAPI staining. […]
intracellular bacteria. Related to Star Methods describing C. Jejuni and S. enterica infections. […] Percent inhibition was calculated by subtracting CFU values as a percentage of the untreated DMSO control (plotted at 0.1 µM) from 100%. […] Curve was fit using non-linear regression analysis of log (inhibitor) vs. response (variable slope) calculated with GraphPad Prism 10. […]

[10] = tested on: Mycobacterium tuberculosis H37Rv in hMDM; assay: microbe, parasite or virus in culture; format: cell-based
Escherichia coli = assay: Disk assay, in vitro activity; format: cell-based
Mycobacterium marinum = assay: Disk assay, in vitro activity; format: cell-based; details: up to 25 μg of P-4423632
[11] = Cytotoxicity analysis (MTT assay); format: cell-based; details: human, differentiated THP-1 cells, toxicity level to THP-1 cells
Method: The MTT assay was performed as described previously.[19] […] At the 69.5-hour time point, 25 μL of 3-(4,5-dimethylthiazol-2-yl)-2,5-diphenyltetrazolium bromide (MTT) solution were added to each well. […] The absorbance of each well was read at 570 nm and these values were used to calculate the percentage of viable cells.

Staphylococcus aureus = assay: Disk assay, in vitro activity; format: cell-based
[12] = tested on: Mycobacterium tuberculosis H37Rv in THP-1; assay: Minimal inhibitory concentrations of P-4423632 against Mtb H37Rv in THP-1 (Table S3); format: cell-based
Description: Table S3. Minimal inhibitory concentrations of P-4423632 against Mycobacterium tuberculosis H37Rv in cell lines and in broth, and inhibitory concentrations (toxicity level) to THP-1 cells. Related to Figure 2.

[13] = tested on: Staphylococcus epidermidis; assay: Disk assay, in vitro activity; format: cell-based
[14] = tested on: Salmonella enterica serovar Typhimurium in THP-1 cells; assay: THP-1 infection with S. typhimurium, high content screening; format: cell-based; details: MOI 10:1, 24h
[15] = tested on: intracellular Mtb H37Rv in THP-1 cells; assay: Dose dependent activity against intracellular Mtb, high content analysis of fluorescent Mtb (Fig 3E); format: cell-based, Mycobacterium tuberculosis
MRSA = assay: Disk assay, in vitro activity; format: cell-based; details: up to 25 μg of P-4423632
Bacillus subtilis = assay: Disk assay, in vitro activity; format: cell-based
Mycobacterium abscessus = format: cell-based; details: up to 100 μg of P-4423632
Mtb infection = tested on: Mtb infection; set-up: method as in PMID 35095838; details: GSK3α/β inhibition ref 56; cited from earlier work

Compound: CSc1ccc(-n2cnc3ccc(-c4nnc(CCc5cccc(C#N)c5)o4)cc32)cc1 [P-0717632]
- MIC25 ΔptpA [1]: > 25 µM
- MIC50 ΔptpA [1]: > 25 µM
- MIC50 [2]: 0.4 µM (≈ 0.175 µg/mL)

Compound: CSc1ccc(-n2cnc3ccc(-c4nnc(CCc5cccc(C(F)(F)F)c5)o4)cc32)cc1 [P-3817632]
- MIC25 ΔptpA [1]: 13.8 µM (≈ 6.63 µg/mL)
- MIC50 ΔptpA [1]: > 25 µM
- MIC25 [2]: 0.6 µM (≈ 0.288 µg/mL)
- MIC50 [2]: 2 µM (≈ 0.961 µg/mL)
- IC50 (GSK3β): 280 nM

Compound: O=C(NCc1ccccn1)Nc1cc(N2CC(CCc3ccccc3)CC2=O)ccn1 (stereo not shown) [P-4423632]
- Disk assay susceptibility ([3]; up to 25 μg of P-4423632): R
- MIC25 ΔptpA [1]: > 25 µM
- MIC50 ΔptpA [1]: > 25 µM
- Disk assay susceptibility (Mycobacterium bovis BCG; up to 25 μg of P-4423632): R
- Disk assay susceptibility (Enterococcus faecalis): R
- Disk assay susceptibility (Moraxella catarrhalis; up to 25 μg of P-4423632): R
- Disk assay susceptibility [4]: R
- Disk assay susceptibility (Acinetobacter baumannii; up to 25 μg of P-4423632): R
- phosphorylation of GSK3α Y279 and GSK3β Y216 [5]: reduced phosphorylation of both Y279 and Y216
- in-broth MIC50 compared to intracellular activity ([6]; in broth vs intracellular): over 10 fold
- IC50 ([6]; read-out: (M)IC50, Mtb H37Rv in broth): 3.88e-05 M
- IC90 ([6]; read-out: (M)IC90, Mtb H37Rv in broth): 4.33e-05 M
- activity in disk-diffusion antibiotics susceptibility assay [7]: inactive
- MIC25 [2]: 2.9 µM (≈ 1.2 µg/mL)
- MIC50 [2]: 6.4 µM (≈ 2.66 µg/mL)
- Reduction % of intracellular Mtb survival vs untreated counterpart ([8]; GSK3α KO THP-1 cells): over 75%
- Reduction % of intracellular Mtb survival vs untreated counterpart ([8]; GSK3β KO THP-1 cells): ~50%
- Disk assay susceptibility (Salmonella typhimurium; up to 25 μg of P-4423632): R
- Apoptotic cells (THP-1 cells): 16.31% and 30.57% and 31.59%
- Dead cells (THP-1 cells): 9.32% and 6.98%
- Live cells (THP-1 cells): 67.62% and 58.79% and 58.44%
- effect on apoptosis of infected THP-1 cells (THP-1 cells): upregulation of apoptosis
- Disk assay susceptibility (M. avium avium; up to 25 μg of P-4423632): R
- Disk assay susceptibility (Mycobacterium smegmatis): R
- effect on host cell viability (hMDM): no effect on host cell viability
- Disk assay susceptibility (Pseudomonas aeruginosa; up to 25 μg of P-4423632): R
- activity against intracellular C. jejuni [9]: active in a dose-dependent manner
- IC50 ([10]; Mycobacterium tuberculosis, Macrophage, Mtb H37Rv in hMDM): 4.17 µM
- effect on Mtb intracellular replication in hMDMs ([10]; hMDMs combined from two donors, 72 h): restricted Mtb intracellular replication in a dose dependent manner
- Disk assay susceptibility (Escherichia coli; up to 25 μg of P-4423632): R
- Disk assay susceptibility (Mycobacterium marinum): R
- IC50 at 72 h ([11]; read-out: (M)IC50, cytotoxicity in THP1): 7.78e-05 M
- IC90 at 72 h ([11]; read-out: (M)IC90, cytotoxicity in THP1): 0.000115 M
- IC50 (GSK3β): 748 nM
- Disk assay susceptibility (Staphylococcus aureus; up to 25 μg of P-4423632): R
- IC50 ([12]; H37RV, THP-1, read-out: (M)IC50): 2.31e-06 M
- IC90 ([12]; Mtb H37Rv in THP-1): 16 µM
- Disk assay susceptibility ([13]; up to 25 μg of P-4423632): R
- activity against intracellular S. Typhimurium [14]: active in a dose-dependent manner
- dose-dependent activity against intracellular Mtb [15]: dose-dependent activity
- Disk assay susceptibility (MRSA): R
- Disk assay susceptibility (Bacillus subtilis; up to 25 μg of P-4423632): R
- Disk assay susceptibility (Mycobacterium abscessus): R

Compound: Cc1nnc(-c2ccc3occ(-c4ccc([S+](C)[O-])c(OC(F)(F)F)c4)c3c2)o1 (stereo not shown) [P-5782442]
- MIC25 ΔptpA [1]: > 25 µM
- MIC50 ΔptpA [1]: > 25 µM
- MIC25 [2]: 1.6 µM (≈ 0.676 µg/mL)
- MIC50 [2]: > 25 µM

Compound: Cn1cc(C2=C(c3ccc(Cl)cc3Cl)C(=O)NC2=O)c2ccccc21 [SB216763]
- effect on Mtb infection (Mtb infection): increased Mtb infection

Compound: Gentamycin [reference compound]
- Control (mm), disk assay clearing ([3]; Gen 12.5 μg): 20 mm
- Control (mm), disk assay clearing (Mycobacterium bovis BCG; Gen 10 μg): 30 mm
- Control (mm), disk assay clearing (Moraxella catarrhalis; Gen 10 μg): 30 mm
- Control (mm), disk assay clearing (Acinetobacter baumannii; Gen 10 μg): 20 mm
- Control (mm), disk assay clearing (Salmonella typhimurium; Gen 10 μg): 20 mm
- Control (mm), disk assay clearing (M. avium avium; Gen 12.5 μg): 21 mm
- Control (mm), disk assay clearing (Pseudomonas aeruginosa; Gen 10 μg): 21 mm
- Control (mm), disk assay clearing (Escherichia coli; Gen 10 μg): 18 mm
- Control (mm), disk assay clearing (Staphylococcus aureus; Gen 10 μg): 25 mm
- Control (mm), disk assay clearing ([13]; Gen 10 μg): 26 mm
- Control (mm), disk assay clearing (Bacillus subtilis; Gen 10 μg): 24 mm
